According to patent publication US20240383904A1, “HETEROCYCLIC COMPOUNDS” (Hoffmann-La Roche Inc., priority 2021, published 2024):

Target: T1, MAGL (Homo sapiens, UniProt Q99685)
T1 sequence (Q99685 1-303): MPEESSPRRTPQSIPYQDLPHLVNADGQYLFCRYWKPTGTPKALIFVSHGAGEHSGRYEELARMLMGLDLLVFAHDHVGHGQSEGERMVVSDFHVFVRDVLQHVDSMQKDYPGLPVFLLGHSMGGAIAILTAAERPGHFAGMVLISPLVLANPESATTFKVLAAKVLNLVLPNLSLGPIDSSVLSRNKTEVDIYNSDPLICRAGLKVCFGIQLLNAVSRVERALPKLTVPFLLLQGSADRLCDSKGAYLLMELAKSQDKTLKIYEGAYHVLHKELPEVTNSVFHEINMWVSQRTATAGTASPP
Assay: 2-AG assay: MAGL inhibitory activity by hydrolysis of 2-arachidonoylglycerol to arachidonic acid, followed by mass spectrometry
Format: biochemical
Details: 15 min preincubation, 30 min reaction at RT, 8 μM 2-arachidonoylglycerol

Compound	IC50
O=C1COCC2(CN(C(=O)N3CC4(CC(Cc5nc(C(F)(F)F)ns5)C4)C3)C2)N1 [Example 363, 2-[6-[[3-(trifluoromethyl)-1,2,4-thiadiazol-5-yl]methyl]-2-azaspiro[3.3]heptane-2-carbonyl]-8-oxa-2,5-diazaspiro[3.5]nonan-6-one]	54.9 nM
Cc1cc(C(F)F)n(CC2CC3(C2)CN(C(=O)N2CC4(COCC(=O)N4)C2)C3)n1 [Example 364, 2-[6-[[5-(difluoromethyl)-3-methyl-pyrazol-1-yl]methyl]-2-azaspiro[3.3]heptane-2-carbonyl]-8-oxa-2,5-diazaspiro[3.5]nonan-6-one]	27.2 nM
O=C1COCC2(CN(C(=O)N3CC4(CN(Cc5ccc(C(F)(F)F)cc5F)C4)C3)C2)N1 [Example 372, 2-[6-[2-fluoro-4-(trifluoromethyl)benzyl]-2,6-diazaspiro[3.3]heptane-2-carbonyl]-8-oxa-2,5-diazaspiro[3.5]nonan-6-one]	15.6 nM
O=C1COCC2(CN(C(=O)N3CC4(CN(Cc5ccc(S(=O)(=O)C(F)(F)F)cc5F)C4)C3)C2)N1 [Example 373, 2-[6-(2-fluoro-4-triflyl-benzyl)-2,6-diazaspiro[3.3]heptane-2-carbonyl]-8-oxa-2,5-diazaspiro[3.5]nonan-6-one]	59.2 nM
CC(C)(C)c1coc(CN2CC3(C2)CN(C(=O)N2CC4(CCC(=O)N4)C2)C3)n1 [Example 374, 2-[6-[(4-tert-butyloxazol-2-yl)methyl]-2,6-diazaspiro[3.3]heptane-2-carbonyl]-2,5-diazaspiro[3.4]octan-6-one]	88.7 nM
O=C1CCC2(CN(C(=O)N3CC4(CN(Cc5ccc[nH]c5=O)C4)C3)C2)N1 [Example 375, 2-[6-[(2-keto-1H-pyridin-3-yl)methyl]-2,6-diazaspiro[3.3]heptane-2-carbonyl]-2,5-diazaspiro[3.4]octna-6-one]	1850 nM

The next lines start with the values.

IC50	Compound
41 nM	O=C1COCC2(CN(C(=O)N3CC4(CC(Cc5cnn(C(F)(F)F)c5)C4)C3)C2)N1 [Example 365, 2-[6-[[1-(trifluoromethyl)pyrazol-4-yl]methyl]-2-azaspiro[3.3]heptane-2-carbonyl]-8-oxa-2,5-diazaspiro[3.5]nonan-6-one]
22.4 nM	Cn1ncc(C(F)(F)F)c1CC1CC2(C1)CN(C(=O)N1CC3(COCC(=O)N3)C1)C2 [Example 366, 2-[6-[[2-methyl-4-(trifluoromethyl)pyrazol-3-yl]methyl]-2-azaspiro[3.3]heptane-2-carbonyl]-8-oxa-2,5-diazaspiro[3.5]nonan-6-one]
2.88 nM	Cn1nc(CC2CC3(C2)CN(C(=O)N2CC4(COCC(=O)N4)C2)C3)cc1C(F)(F)F [Example 367, 2-[6-[[1-methyl-5-(trifluoromethyl)pyrazol-3-yl]methyl]-2-azaspiro[3.3]heptane-2-carbonyl]-8-oxa-2,5-diazaspiro[3.5]nonan-6-one]
4.11 nM	Cn1ncc(CC2CC3(C2)CN(C(=O)N2CC4(COCC(=O)N4)C2)C3)c1C(F)(F)F [Example 368, 2-[6-[[1-methyl-5-(trifluoromethyl)pyrazol-4-yl]methyl]-2-azaspiro[3.3]heptane-2-carbonyl]-8-oxa-2,5-diazaspiro[3.5]nonan-6-one]
23.1 nM	O=C1COCC2(CN(C(=O)N3CC4(CC(Cc5nc(C(F)(F)F)cs5)C4)C3)C2)N1 [Example 369]
11.8 nM	Cn1cc(CC2CC3(C2)CN(C(=O)N2CC4(COCC(=O)N4)C2)C3)c(C(F)(F)F)n1 [Example 370, 2-[6-[[1-methyl-3-(trifluoromethyl)pyrazol-4-yl]methyl]-2-azaspiro[3.3]heptane-2-carbonyl]-8-oxa-2,5-diazaspiro[3.5]nonan-6-one]
9.04 nM	O=C1COCC2(CN(C(=O)N3CC4(CC(Cc5ncc(F)cc5F)C4)C3)C2)N1 [Example 371, 2-[6-[(3,5-difluoro-2-pyridyl)methyl]-2-azaspiro[3.3]heptane-2-carbonyl]-8-oxa-2,5-diazaspiro[3.5]nonan-6-one]
